Laboratory results as given in patent US20100297194A1, “FORMULATION FOR ORAL ADMINISTRATION OF APOPTOSIS PROMOTER” (priority 2009, published 2010).
Where a name gives a salt, the structure may show the parent alone.

Tests used:
Type in all cases: physicochemical
[1] = solubility in lipid solvents (Example 1); conditions: ambient conditions, listed as ABT-263 bis-HCl salt;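 note: solubility in mg/g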
Description: Solubility of ABT-263 parent (free base, crystalline Form I) and ABT-263 bis-HCl salt was tested in a variety of lipid solvents and solvent mixtures in ambient conditions. “PE-91” is Phosal 53 MCT™+ethanol, 9:1 by volume. “LOT-343” is Labrafil M 1944 CS™+oleic acid+Tween 80™, 30:40:30 by weight.
In some cases, indicated in Table 4 by an asterisk (*), solubility was initially high but precipitation occurred upon standing.

[2] = drug solubility in ternary excipient systems (Example 2); set-up: key: ✓: vehicle miscible, or drug fully dissolved in vehicle; conditions: 10% salt, 20% free base
Excerpt: (§1) Solvents evaluated included Labrafil M 1944 CS™, Imwitor 742™ oleic acid, Capmul PG-8™, Capmul PG-12™, Lauroglycol 90™ and Phosal 53 MCT™. Surfactants evaluated included Tween™ 80, Cremophor RH40™, Gelucire 44/14™ and Labrasol™.

[3] = as above; set-up: key: ✓: vehicle miscible, or drug fully dissolved in vehicle; X: vehicle immiscible or miscible but turbid, or residual solids present (due to undissolved drug or precipitation); conditions: 10% salt, 20% free base
Excerpt: as §1

CC1(C)CCC(c2ccc(Cl)cc2)=C(CN2CCN(c3ccc(C(=O)NS(=O)(=O)c4ccc(N[C@H](CCN5CCOCC5)CSc5ccccc5)c(S(=O)(=O)C(F)(F)F)c4)cc3)CC2)C1 [ABT-263 bis-HCl]
Solubility ([1]; in Capmul MCM): >321 mg/g
Solubility ([1]; in Capmul PG-8): <43 mg/g
Solubility ([1]; in Capmul PG-12): <39 mg/g
Solubility ([1]; in Captex 300): <52 mg/g
Solubility ([1]; in Imwitor 742): >245 mg/g
Solubility ([1]; in Labrafil M 1944 CS): <45 mg/g
Solubility ([1]; in Labrafil M 2125 CS): <44 mg/g
Solubility ([1]; in Labrasol): >292 mg/g
Solubility ([1]; in Lipoid S75 MCT): 48.9 mg/g
Solubility ([1]; in Miglyol 810): <84 mg/g
Solubility ([1]; in PE-91 (Phosal 53 MCT+ethanol 9:1 by volume)): 89 mg/g
Solubility ([1]; in PEG-400): >278 mg/g
Solubility ([1]; in Tween 20): >176 mg/g
Solubility ([1]; in Tween 80): >125 mg/g
Solubility ([1]; in castor oil): >78.8 mg/g
Solubility ([1]; in corn oil): <104 mg/g
Solubility ([1]; in oleic acid): <498 mg/g
Solubility ([1]; in poloxamer 124): <41 mg/g
Solubility ([1]; in propylene glycol): >337 mg/g
Solubility ([1]; in sesame oil): <80 mg/g
ABT-263 solubility ([2]; C8LL (Capmul PG-8/Labrafil M 1944 CS/Labrasol) 40:40:20 by weight): ✓
ABT-263 solubility ([2]; C12LT (Capmul PG-12/Labrafil M 1944 CS/Tween 80) 30:40:30 by weight): ✓
ABT-263 solubility ([2]; C12LT (Capmul PG-12/Labrafil M 1944 CS/Tween 80) 35:40:25 by weight): ✓
ABT-263 solubility ([2]; C12LT (Capmul PG-12/Labrafil M 1944 CS/Tween 80) 40:30:30 by weight): ✓
ABT-263 solubility ([2]; C12LT (Capmul PG-12/Labrafil M 1944 CS/Tween 80) 45:30:25 by weight): ✓
ABT-263 solubility ([2]; ILC (Imwitor 742/Labrafil M 1944 CS/Cremophor RH40) 50:30:20 by weight, listed as ABT-263 bis-HCl salt): ✓
ABT-263 solubility ([2]; ILC (Imwitor 742/Labrafil M 1944 CS/Cremophor RH40) 50:40:10 by weight, listed as ABT-263 bis-HCl salt): ✓
ABT-263 solubility ([2]; ILC (Imwitor 742/Labrafil M 1944 CS/Cremophor RH40) 60:30:10 by weight, listed as ABT-263 bis-HCl salt): ✓
ABT-263 solubility ([2]; ILL (Imwitor 742/Labrafil M 1944 CS/Labrasol) 40:40:20 by weight, listed as ABT-263 bis-HCl salt): ✓
ABT-263 solubility ([2]; ILL (Imwitor 742/Labrafil M 1944 CS/Labrasol) 50:30:20 by weight, listed as ABT-263 bis-HCl salt): ✓
ABT-263 solubility ([2]; ILL (Imwitor 742/Labrafil M 1944 CS/Labrasol) 50:40:10 by weight, listed as ABT-263 bis-HCl salt): ✓
ABT-263 solubility ([2]; ILL (Imwitor 742/Labrafil M 1944 CS/Labrasol) 60:30:10 by weight, listed as ABT-263 bis-HCl salt): ✓
ABT-263 solubility ([2]; LIT (Labrafil M 1944 CS/Imwitor 742/Tween 80) 30:40:30 by weight, listed as ABT-263 bis-HCl salt): ✓
ABT-263 solubility ([2]; LIT (Labrafil M 1944 CS/Imwitor 742/Tween 80) 40:30:30 by weight, listed as ABT-263 bis-HCl salt): ✓
ABT-263 solubility ([2]; LLL (Lauroglycol 90/Labrafil M 1944 CS/Labrasol) 40:40:20 by weight): ✓
ABT-263 solubility ([2]; LLL (Lauroglycol 90/Labrafil M 1944 CS/Labrasol) 50:30:20 by weight): ✓
ABT-263 solubility ([2]; LLL (Lauroglycol 90/Labrafil M 1944 CS/Labrasol) 50:40:10 by weight, listed as ABT-263 bis-HCl salt): ✓
ABT-263 solubility ([2]; LLL (Lauroglycol 90/Labrafil M 1944 CS/Labrasol) 60:30:10 by weight, listed as ABT-263 bis-HCl salt): ✓
ABT-263 solubility ([2]; LOT (Labrafil M 1944 CS/oleic acid/Tween 80) 30:40:30 by weight): ✓
ABT-263 solubility ([2]; LOT (Labrafil M 1944 CS/oleic acid/Tween 80) 30:45:25 by weight): ✓
ABT-263 solubility ([2]; LOT (Labrafil M 1944 CS/oleic acid/Tween 80) 40:30:30 by weight): ✓
ABT-263 solubility ([2]; LOT (Labrafil M 1944 CS/oleic acid/Tween 80) 40:35:25 by weight): ✓
ABT-263 solubility ([2]; OLL (oleic acid/Labrafil M 1944 CS/Labrasol) 40:40:20 by weight): ✓
ABT-263 solubility ([2]; OLL (oleic acid/Labrafil M 1944 CS/Labrasol) 50:30:20 by weight): ✓
ABT-263 solubility ([2]; OLL (oleic acid/Labrafil M 1944 CS/Labrasol) 50:40:10 by weight): ✓
ABT-263 solubility ([2]; OLL (oleic acid/Labrafil M 1944 CS/Labrasol) 60:30:10 by weight): ✓
ABT-263 solubility ([3]; C8LL (Capmul PG-8/Labrafil M 1944 CS/Labrasol) 50:30:20 by weight): X
ABT-263 solubility ([3]; C8LL (Capmul PG-8/Labrafil M 1944 CS/Labrasol) 50:40:10 by weight): X
ABT-263 solubility ([3]; C8LL (Capmul PG-8/Labrafil M 1944 CS/Labrasol) 60:30:10 by weight): X
ABT-263 solubility ([3]; C8LT (Capmul PG-8/Labrafil M 1944 CS/Tween 80) 30:40:30 by weight): X
ABT-263 solubility ([3]; C8LT (Capmul PG-8/Labrafil M 1944 CS/Tween 80) 35:40:25 by weight): X
ABT-263 solubility ([3]; C8LT (Capmul PG-8/Labrafil M 1944 CS/Tween 80) 40:30:30 by weight): X
ABT-263 solubility ([3]; C8LT (Capmul PG-8/Labrafil M 1944 CS/Tween 80) 45:30:25 by weight): X
